`CC(C)(F)CC[C@H](C[C@H](O)[C@H](Cc1ccccc1)NC(=O)c1cnc2ccccc2n1)C(=O)NCCc1ccccn1` [Example 205, Quinoxaline-2-carboxylic acid [1(S)-benzyl-7-fluoro-2(S)-hydroxy-7-methyl-4(R)-(2-pyridin-2-yl-ethylcarbamoyl)-octyl]-amide] came in with a melting point of 155 to 156 °C.
In the case of `NC(=O)[C@H](Cc1cccc(F)c1)C[C@H](O)[C@H](Cc1ccccc1)NC(=O)c1cnc2ccccc2n1` [Example 292, Quinoxaline-2-carboxylic acid [1(S)-benzyl-4(R)-carbamoyl-5-(3-fluoro-phenyl)-2(S)-hydroxy-pentyl]-amide], the melting point was in the range of 176 to 179 °C.
With `NC(=O)[C@H](Cc1ccc(OC(F)(F)F)cc1)C[C@H](O)[C@H](Cc1ccccc1)NC(=O)c1cnc2ccccc2n1` [Example 193, Quinoxaline-2-carboxylic acid [1(S)-benzyl-4(R)-carbamoyl-2(S)-hydroxy-5-(4-trifluoromethoxy-phenyl)-pentyl]-amide], the melting point lay within 184 to 187 °C.
Take `Cc1cccc(C[C@H](C[C@H](O)[C@H](Cc2ccccc2)NC(=O)c2cnc3ccccc3n2)C(N)=O)c1` [Example 293, Quinoxaline-2-carboxylic acid (1(S)-benzyl-4(R)-carbamoyl-2(S)-hydroxy-5-m-tolyl-pentyl)-amide]: the melting point lay in the range of 178 to 179 °C.
`O=C(N[C@@H](Cc1ccccc1)[C@@H](O)C[C@H](C(=O)NO)C1(O)C2CCCC1CCC2)c1cnc2ccccc2n1` (stereo partly drawn) [Example 298, Quinoxaline-2-carboxylic acid [1(S)-benzyl-2(S)-hydroxy-4(S)-(9-hydroxy-bicyclo[3.3.1]non-9-yl)-4-hydroxycarbamoyl-butyl]-amide] registered a melting point of 130 to 132 °C.
For `NC(=O)[C@@H](C[C@H](O)[C@H](Cc1ccccc1)NC(=O)c1cnc2ccccc2n1)C1(O)C2CCCC1CCC2` (stereo partly drawn) [Example 296, Quinoxaline-2-carboxylic acid [1(S)-benzyl-4(S)-carbamoyl-2(S)-hydroxy-4-(9-hydroxy-bicyclo[3.3.1]non-9-yl)-butyl]-amide], the melting point lay within 268 to 269 °C.
Regarding `NC(=O)[C@@H](C[C@H](O)[C@H](Cc1ccccc1)NC(=O)c1cnc2ccccc2n1)C1Cc2ccccc2C1` [Example 192, Quinoxaline-2-carboxylic acid (1(S)-benzyl-4(S)-carbamoyl-2(S)-hydroxy-4-indan-2-yl-butyl)-amide], the melting point fell in the range of 190 to 191 °C.
Regarding `CC(C)CNC(=O)CC[C@H](O)[C@H](Cc1ccccc1)NC(=O)c1cnc2ccccc2n1` [Example 294, Quinoxaline-2-carboxylic acid (1(S)-benzyl-2(S)-hydroxy-4-isobutylcarbamoyl-butyl)-amide], the melting point lay within 146 to 148 °C.
As for `NC(=O)[C@@H](C[C@H](O)[C@H](Cc1ccccc1)NC(=O)c1cnc2ccccc2n1)C1(O)CCCCCC1` [Example 290, Quinoxaline-2-carboxylic acid [1(S)-benzyl-4(S)-carbamoyl-2(S)-hydroxy-4-(1-hydroxy-cycloheptyl)-butyl]-amide], the figure is 189 to 191 °C; as for `CCCC1CCC(O)([C@H](C[C@H](O)[C@H](Cc2ccccc2)NC(=O)c2cnc3ccccc3n2)C(=O)NO)CC1` (stereo partly drawn) [Example 301, Quinoxaline-2-carboxylic acid [1(S)-benzyl-2(S)-hydroxy-4(S)-hydroxycarbamoyl-4-(1-hydroxy-4-propyl-cyclohexyl)-butyl]-amide], 115 to 117 °C; as for `NC(=O)[C@@H](C[C@H](O)[C@H](Cc1ccccc1)NC(=O)c1cnc2ccccc2n1)C1(O)CCSCC1` [Example 269, Quinoxaline-2-carboxylic acid [1(S)-benzyl-4(S)-carbamoyl-2(S)-hydroxy-4-(4-hydroxy-tetrahydro-thiopyran-4-yl)-butyl]-amide], 123 to 125 °C.
The result for `COc1cccc(C[C@H](C[C@H](O)[C@H](Cc2ccccc2)NC(=O)c2cnc3ccccc3n2)C(N)=O)c1` [Example 299, Quinoxaline-2-carboxylic acid [1(S)-benzyl-4(R)-carbamoyl-2(S)-hydroxy-5-(3-methoxy-phenyl)-pentyl]-amide] reads 147 to 148 °C; that for `O=C(N[C@@H](Cc1ccccc1)[C@@H](O)C[C@@H](Cc1ccccc1)C(=O)NO)c1cnc2ccccc2n1` [Example 276, Quinoxaline-2-carboxylic acid (1(S)-benzyl-2(S)-hydroxy-4(R)-hydroxycarbamoyl-5-phenyl-pentyl)-amide], 190 to 192 °C; that for `CNC(=O)[C@H](CC(C)C)C[C@H](O)[C@H](Cc1ccc(F)cc1)NC(=O)c1cnc2ccccc2c1` [Example 89, Quinoline-3-carboxylic acid [1(S)-(4-fluoro-benzyl)-2(S)-hydroxy-6-methyl-4(R)-methylcarbamoyl-heptyl]-amide], 184 to 186 °C.
Compound `CNC(=O)[C@H](CC1CCC(F)(F)CC1)C[C@H](O)[C@H](Cc1ccccc1)NC(=O)c1cnc2ccccc2n1` [Example 132, Quinoxaline-2-carboxylic acid [1(S)-benzyl-5-(4,4-difluoro-cyclohexyl)-2(S)-hydroxy-4(R)-methylcarbamoyl-pentyl]-amide] displayed a melting point of 170 to 172 °C.
For `CC(C)(F)CC[C@H](C[C@H](O)[C@H](Cc1ccc(I)cc1)NC(=O)c1cnc2ccccc2n1)C(N)=O` [Example 250, Quinoxaline-2-carboxylic acid [4(R)-carbamoyl-7-fluoro-2(S)-hydroxy-1(S)-(4-iodo-benzyl)-7-methyl-octyl]-amide], the melting point is 185.5 to 187.5 °C.
In the case of `CC(C)(F)CC[C@H](C[C@H](O)[C@H](Cc1ccccc1)NC(=O)c1cnc2ccccc2n1)C(=O)NCc1cccnc1` [Example 199, Quinoxaline-2-carboxylic acid {1(S)-benzyl-7-fluoro-2(S)-hydroxy-7-methyl-4(R)-[(pyridin-3-ylmethyl)-carbamoyl]-octyl}-amide], the melting point lay in the range of 188 to 191 °C.
Compound `CNC(=O)[C@H](CC(C)C)C[C@H](O)[C@H](CC1CCC(F)(F)CC1)NC(=O)c1cnc2ccccc2n1` [Example 108, Quinoxaline-2-carboxylic acid [1(S)-(4,4-difluoro-cyclohexylmethyl)-2(S)-hydroxy-6-methyl-4(R)-methylcarbamoyl-heptyl]-amide] had a melting point of 95 to 98 °C.
`CC(C)(O)CC[C@H](C[C@H](O)[C@H](Cc1ccccc1F)NC(=O)c1cnc2ccccc2n1)C(=O)NO` [Example 320, Quinoxaline-2-carboxylic acid [1(S)-(2-fluoro-benzyl)-2(S),7-dihydroxy-4(R)-hydroxycarbamoyl-7-methyl-octyl]-amide] displayed a melting point of 130 to 131 °C.
`CC1CC(C)CC([C@@H](C[C@H](O)[C@H](Cc2ccccc2)NC(=O)c2cnc3ccccc3n2)C(N)=O)C1` (stereo partly drawn) [Example 210, Quinoxaline-2-carboxylic acid [1(S)-benzyl-4(R)-carbamoyl-4-(3,5-dimethyl-cyclohexyl)-2(S)-hydroxy-butyl]-amide] displayed a melting point of 221 to 222 °C.
As for `CNC(=O)[C@H](CCC(C)(C)F)C[C@H](O)[C@H](Cc1ccc(F)cc1)NC(=O)c1cnc2ccccc2n1` [Example 154, Quinoxaline-2-carboxylic acid [7-fluoro-1(S)-(4-fluoro-benzyl)-2(S)-hydroxy-7-methyl-4(R)-methylcarbamoyl-octyl]-amide], the figure is 145 to 147 °C; as for `CC(C)(F)CC[C@H](C[C@H](O)[C@H](Cc1ccc(Cl)c(Cl)c1)NC(=O)c1cnc2ccccc2n1)C(N)=O` [Example 155, Quinoxaline-2-carboxylic acid [4(R)-carbamoyl-1(S)-(3,4-dichloro-benzyl)-7-fluoro-2(S)-hydroxy-7-methyl-octyl]-amide], 206 to 207 °C; as for `NC(=O)[C@H](CC1CCC(F)(F)CC1)C[C@H](O)[C@H](Cc1ccccc1)NC(=O)c1cnc2ccccc2n1` [Example 133, Quinoxaline-2-carboxylic acid [1(S)-benzyl-4(R)-carbamoyl-5-(4,4-difluoro-cyclohexyl)-2(S)-hydroxy-pentyl]-amide], 174 to 176 °C.
As for `NC(=O)[C@@H](C[C@H](O)[C@H](Cc1ccccc1)NC(=O)c1cnc2ccccc2n1)C1CCOCC1` [Example 204, Quinoxaline-2-carboxylic acid [1(S)-benzyl-4(S)-carbamoyl-2(S)-hydroxy-4-(tetrahydro-pyran-4-yl)-butyl]-amide], the figure is 151 to 154 °C; as for `CC(C)(F)CC[C@H](C[C@H](O)[C@H](Cc1cccc(F)c1)NC(=O)c1cnc2ccccc2n1)C(N)=O` [Example 245, Quinoxaline-2-carboxylic acid [4(R)-carbamoyl-7-fluoro-1(S)-(3-fluoro-benzyl)-2(S)-hydroxy-7-methyl-octyl]-amide], 225 to 227 °C; as for `CNC(=O)[C@H](CC(C)C)C[C@H](O)[C@H](CC(C)C)NC(=O)c1cnc2ccccc2c1` [Example 10, Quinoline-3-carboxylic acid (2(S)-hydroxy-1(S)-isobutyl-6-methyl-4(R)-methylcarbamoyl-heptyl)-amide], 155 to 157 °C.
As for `CNC(=O)[C@H](CC(C)C)C[C@H](O)[C@H](Cc1ccc(OCc2ccccc2)cc1)NC(=O)c1cnc2ccccc2c1` [Example 40, Quinoline-3-carboxylic acid [1(S)-(4-benzyloxy-benzyl)-2(S)-hydroxy-6-methyl-4(R)-methylcarbamoyl-heptyl]-amide], the figure is 178 to 179 °C; as for `COc1ccccc1CNC(=O)[C@H](CCC(C)(C)F)C[C@H](O)[C@H](Cc1ccccc1)NC(=O)c1cnc2ccccc2n1` [Example 227, Quinoxaline-2-carboxylic acid [1(S)-benzyl-7-fluoro-2(S)-hydroxy-4(R)-(2-methoxy-benzylcarbamoyl)-7-methyl-octyl]-amide], 135 °C; as for `CNC(=O)[C@H](CCC(C)C)C[C@H](O)[C@H](Cc1cccc(F)c1)NC(=O)c1cnc2ccccc2n1` [Example 134, Quinoxaline-2-carboxylic acid [1(S)-(3-fluoro-benzyl)-2(S)-hydroxy-7-methyl-4(R)-methylcarbamoyl-octyl]-amide], 158.5 to 159.5 °C.

In general, melting point refers to the temperature, or range, at which the solid turns liquid.

(Values after patent publication US20040087571A1, “Methods of using CCR1 antagonists as immunomodulatory agents” (Pfizer Inc, priority 2002, published 2004).)
